Results published in PMC8623467, “Biochemical Characterization of Recombinant Isocitrate Dehydrogenase and Its Putative Role in the Physiology of an Acidophilic Micrarchaeon” (Microorganisms, 2021).

System: T1, MhIDH6x His
T1 construct: gene icd2; full-length; N-terminal 6xHis tag kept (primer: MHHHHHHEEQKKESIS...); C-terminus AIKSA from primer; pBAD202, E. coli Rosetta pRARE; Ni-IMAC and SEC; homodimer only modelled
Test: NADPH formation at […] nm, Michaelis-Menten fit
Type: biochemical, Candidatus Micrarchaeum harzensis
Conditions: 100 mM TRIS/HCl pH 8.0, 28 °C, Mg2+ (5 mM MgCl2 standard mixture)

Km (20 mM NADP+ (Figure 4 legend))	Km (1 mM DL-isocitrate)	SMILES
53 ± 5.63 µM		O=C(O)CC(C(=O)O)C(O)C(=O)O (racemic) [DL-isocitrate]
	1940 ± 120 µM	NC(=O)c1ccc[n+]([C@@H]2O[C@H](COP(=O)(O)OP(=O)(O)OC[C@H]3O[C@@H](n4cnc5c(N)ncnc54)[C@H](OP(=O)(O)O)[C@@H]3O)[C@@H](O)[C@H]2O)c1 [NADP^+]
